Laboratory results from patent publication US20240343699A1, “DERIVATIVES OF SUBSTITUTED MORPHOLINES AND USES THEREOF” (Supernus Pharmaceuticals, Inc., priority 2023, published 2024).
Counter-ions that a name gives are not always drawn.

What was measured:
rat red blood cells = experiment: Hemolysis in rat blood; assay type: cell-based; conditions: rat blood, 60 min exposure; read-out: EC50 (% RBC lysis)
Procedure: Stability of Test Articles at Different pH Values. 10 mM stock solutions of COMPOUND A were prepared in DMSO. From this stock solution, a single concentration in a 10 μL aliquot was added to three fluid matrices: SGF at pH 2.0 (gastric), SIF at pH 6.0 (upper intestine), and PBS at 7.4 (systemic). The final volume was 1 mL (0.1 mM). The preparations were then incubated at 37° C. and samples were collected at 0, 15, 30, 60, and 120 min for analysis of parent material by LC/MS/MS. The collected sample was quenched in acetonitrile/0.1% formic acid mixture. Red Blood Cell (RBC): Human and rat blood were centrifuged to separate out red blood cells at […] for 15 min. The upper plasma level was aspirated with a micropipette and placed in a bleach solution for disposal. The RBC pellet was resuspended in sterile isotonic saline. The pellet was gently resuspended by rocking the tube. The sample was then centrifuged again to collect the RBC pellet and then resuspended and washed one more time following the same procedure. A total of three was done. Following the last wash and centrifugation, the RBCs were resuspended with PBS; and mixed by inversion. Aliquots of the resuspended and washed RBCs were then placed into 4 reaction tubes. These tubes were centrifuged to collect the RBCs. The fluid level was marked on each tube, then the supernatant was aspirated off and the cells resuspended with room temperature PBS pH 7.4 to the original mark. An aliquot of the RBC suspension was added to four sterile tubes containing PBS pH 7.4 at room temperature.
Stability in Human and Rat Red Blood cells and Hemolysis. […] After centrifugation, 70 μL of supernatant (without disturbing the pellet) was transferred to a clean and clear polystyrene flat bottomed 96-well plate and the absorbance of the sample at a single wavelength was measured using a Bio Tech Synergy Hl Plate Reader at a wavelength of 410 nm. […] Stability was measured by measuring loss of parent compound using LC/MS/MS.

recognition memory [1] = experiment: Spontaneous novel object recognition (NOR), 48 hr retention interval; assay type: in vivo, male Wistar rats; conditions: donepezil 2.0 mg/kg i.p., 48 hr delay
immobility = experiment: Tail suspension test (TST); conditions: imipramine 15 mg/kg IP, vs vehicle (p=0.01)
Procedure: The tail suspension test is an experimental method used in scientific research to measure a state of being helpless in rodents, especially in mice. It is based on the observation that if a mouse is subjected to short term inescapable stress then the mouse will stop struggling. Immobility is quantified by measuring the amount of time lacking whole body activity.
The immobilized time in the last 4 min of the TST, which indicated depression-like behavior, was quantified using offline video manual scoring in a blinded manner.
Animals. Adult (7 to 8 weeks) male mice (C57Bl/6, Charles River Laboratories) were used in the study. Upon arrival, animals were group-housed (5/cage) with access to food and water ad libitum. Animals were maintained on a 12/12-hour light/dark cycle in a temperature—(22±2° C.) and humidity—(approx. 50%) controlled room. Animals were numbered consecutively by tail marks. Each cage was identified by a card indicating the study number, sex, animal numbers and date of birth.
Test article formulations were prepared fresh based on weight-to-volume in the vehicle on each dosing day. […] The appearance of the formulations was clear, with no precipitations. […] A vehicle group was included for comparison.
Monitoring. A piezoelectric sensor operated by the SmartCage system was utilized and video recording was conducted for scoring. After animals acclimated to the testing room, an individual mouse's tail was placed onto the piezoelectric sensor-board and the mouse was hung upside down, which signaled the immediate start of the recording of struggle activity, and it lasted for 6 min. The mouse was then taken off and returned to the home cage. The immobilized time, indicating depression-like behavior, was quantified using manual scoring of the video recordings for the period from 120 seconds to 360 seconds during TST. The percent immobility time was calculated: (immobility time/240 seconds)*100.
The immobilized time in the last 4 min of the TST, which indicates depression-like behavior, was quantified using offline video manual scoring in a blinded manner.
Animals. Adult (8 weeks, approximately 20-25 g) male mice (C57Bl/6, Vendor: Charles River Laboratories) were used in the study. Upon arrival, animals were group-housed (5/cage) with access to food and water ad libitum. Animals were maintained on a 12/12-hour light/dark cycle in a temperature—(22±2° C.) and humidity—(35-50%) controlled room. Animals were numbered consecutively by tail ID. Each cage was identified by a colored card indicating the study number, sex, animal numbers and date of birth.
Test article formulations were prepared fresh based on weight-to-volume in the vehicle on dosing day. […] The appearance of the formulations was clear, with no precipitations.
The tail suspension test is an experimental method used in scientific research to measure a state of being helpless in rodents, especially in mice. It is based on the observation that if a mouse is subjected to short term inescapable stress then the mice will give up struggling. “Immobility” is quantified by measuring the amount of time during which the animal has no whole-body activity.
Tail Suspension Test (TST). A piezoelectric sensor operated by the SmartCage system was utilized and video recording was conducted for scoring. Once animals were acclimated to the testing room, the TST was initiated by placing the tail of the test mouse onto the piezoelectric sensor-board and hanging the mouse upside down. The recording period was initiated once the mouse was upside down and lasted for 6 min. After the recording period, the mouse was removed from the recording device and returned to its home cage.

recognition memory [2] = experiment: Novel object recognition, scopolamine-impairment model, 3 hr retention interval

Structure (SMILES): C[C@@H]1[C@H](O)[C@@H](C)/C=C/C=C/C=C/C=C/C=C/C=C/C=C/[C@H](O[C@@H]2O[C@H](C)[C@@H](O)[C@H](N)[C@@H]2O)C[C@@H]2O[C@](O)(C[C@@H](O)C[C@@H](O)[C@H](O)CC[C@@H](O)C[C@@H](O)CC(=O)O[C@H]1C)C[C@H](O)[C@H]2C(=O)O [amphotericin B, reference compound]
- EC50 (rat red blood cells): 4.73 µM

Structure (SMILES): COc1cc2c(cc1OC)C(=O)C(CC1CCN(Cc3ccccc3)CC1)C2 (stereo not drawn) [donepezil, reference compound]
- preference for the novel object (exploration times) (recognition memory [1]): significant preference for the novel object

Structure (SMILES): CN(C)CCCN1c2ccccc2CCc2ccccc21 [imipramine, reference compound]
- percent immobility time (immobility): significantly reduced immobility time

Structure (SMILES): CN1[C@@H]2C[C@@H](OC(=O)[C@H](CO)c3ccccc3)C[C@H]1[C@@H]1O[C@@H]12 [scopolamine, (−)-scopolamine hydrobromide]
- d2 ratios vs vehicle-controls (recognition memory [2]; vehicle-scopolamine 0.2 mg/kg i.p.): significantly impaired compared to the vehicle-controls

Structure (SMILES): Cc1ccc(Sc2ccccc2N2CCNCC2)c(C)c1 [vortioxetine]
- memory enhancement (attenuation of the scopolamine impairment) (recognition memory [2]; vortioxetine 10 mg/kg s.c. + scopolamine 0.2 mg/kg i.p., 3 hr delay): not associated with significant memory enhancement
- adverse reactions (recognition memory [2]; vortioxetine-scopolamine combination, three of the twelve rats, A/A session): adverse reactions during the A/A session (thigmotaxis, vocalizations, labored breathing)
